Experimental findings from ChEMBL document CHEMBL5729210, “Benzodiazepine derivatives as RSV inhibitors” (2022) are described below.

Where only a bound is given, the exact number is not on record here.

The nature of this test: RSV-A Assay: The description is Japanese.

Compound `O=C1OCCc2cc(C(F)(F)F)cnc21` had a half-maximal effective concentration (EC50) above 0.8 µM.

`O=C1Nc2ccccc2C(c2ccccc2)=N[C@@H]1Nc1nnc(-c2ncc(C(F)(F)F)cc2N[C@@H]2CCOC2)o1` showed an EC50 below 0.4 µM.

`O=C1Nc2ccccc2C(c2ccccc2)=N[C@@H]1Nc1nnc(-c2ncc(C(F)(F)F)cc2N[C@H]2CC[C@H]2O)o1` displayed an EC50 above 0.8 µM.

On to `O=C1Nc2ccccc2C(c2ccccc2)=NC1Nc1nnc(-c2ccc(F)nc2)o1` (stereo unspecified), for which the concentration for a half-maximal effect (EC50) result is “in the range around 0.6 µM”.

For the compound `O=C1Nc2ccccc2C(c2ccccc2)=N[C@@H]1Nc1nnc(-c2cn(CC3CC3)nc2N2CCOCC2)o1`, the half-maximal effective concentration (EC50) is < 0.4 µM and in the range around 0.6 µM.

`Cn1cc(-c2nnc(NC3N=C(c4ccccc4)c4ccccc4NC3=O)o2)cn1` (stereo unspecified): the EC50 entry was “in the range around 0.6 µM”.

Regarding `Cn1ncc(-c2nnc(N[C@H]3N=C(c4ccccc4)c4ccccc4NC3=O)o2)c1N1CCOCC1`, the concentration giving a half-maximal response (EC50) was above 0.8 µM.

As to `COC[C@H]1C[C@@H]1c1cc(C(F)(F)F)cnc1-c1nnc(N[C@H]2N=C(c3ccccc3)c3ccccc3NC2=O)o1`, the EC50 was above 0.8 µM.

`N#Cc1ccc(-c2nnc(N[C@H]3N=C(c4ccccc4)c4ccccc4NC3=O)o2)c(-c2ccsc2)c1` showed a concentration giving a half-maximal response (EC50) above 0.8 µM.

`CS(=O)(=O)c1cnc(-c2nnc(N[C@H]3N=C(c4ccccc4)c4ccccc4NC3=O)o2)c(N2CCOCC2)c1`: the EC50 is above 0.8 µM.

`COCCn1cc(-c2nnc(N[C@H]3N=C(c4ccccc4)c4ccccc4NC3=O)o2)c(N2CCOCC2)n1` returned a half-maximal effective concentration (EC50) below 0.4 µM.

Regarding `O=C1Nc2ccccc2C(c2ccccc2)=N[C@@H]1Nc1nnc(-c2ncsc2C2=CCOCC2)o1`, the concentration for a half-maximal effect (EC50) was below 0.4 µM.

Turning to `O=C1Nc2ccccc2C(c2ccccc2)=NC1Nc1nnc(C2CCCC2)o1` (stereo unspecified), the EC50 was above 0.8 µM.

For `C[C@@H]1COCCN1c1cc(C(F)(F)F)cnc1-c1nnc(N[C@H]2N=C(c3ccccc3)c3ccccc3NC2=O)o1`, the 50% effective concentration (EC50) was below 0.4 µM.

For the compound `O=C1Nc2ccccc2C(c2ccccc2)=NC1Nc1nnc(-c2ccc(NC3CCCCC3)cc2)o1` (stereo unspecified), the 50% effective concentration (EC50) is above 0.8 µM.

For `O=C1Nc2ccccc2C(c2ccccc2)=N[C@@H]1Nc1nnc(-c2ncc(C3CCCCC3)cc2N2CCOCC2)o1`, the EC50 was below 0.4 µM.

For `N#Cc1cc(-c2nnc(NC3N=C(c4ccccc4)c4ccccc4NC3=O)o2)ccc1F` (stereo unspecified), the EC50 entry was “in the range around 0.6 µM”.

Take `O=C1Nc2ccccc2C(c2ccccc2)=N[C@@H]1Nc1nnc(-c2nnsc2N2CCOCC2)o1`: the EC50 was below 0.4 µM.

`O=C1Nc2ccccc2C(c2ccccc2)=N[C@@H]1Nc1nnc(-c2cnn(-c3ccccc3)c2)o1`: the EC50 result was “in the range around 0.6 µM”.

In the case of `O=C1Nc2ccccc2C(c2ccccc2)=N[C@@H]1Nc1nnc(-c2nc(C(F)(F)F)sc2N2CCO[C@@H]3C[C@@H]32)o1`, the EC50 was above 0.8 µM.

In turn, `COCCn1nccc1-c1nnc(N[C@H]2N=C(c3ccccc3)c3ccccc3NC2=O)o1` gave an EC50 above 0.8 µM.

As for `C[C@@H]1CN(c2cc(C(F)(F)F)cnc2-c2nnc(N[C@H]3N=C(c4ccccc4)c4ccccc4NC3=O)o2)CCO1`, the EC50 was below 0.4 µM.

`CN1CCN(c2ccccc2-c2nnc(NC3N=C(c4ccccc4)c4ccccc4NC3=O)o2)CC1` (stereo unspecified): the EC50 is above 0.8 µM.

For `O=C1Nc2ccccc2C(c2ccccc2)=NC1Nc1nnc(-c2ccccc2-n2cccn2)o1` (stereo unspecified), the 50% effective concentration (EC50) is above 0.8 µM.

Take `O=C1Nc2ccccc2C(c2ccccc2)=N[C@@H]1Nc1nnc(-c2nc(-c3ccncc3)sc2N2CCOCC2)o1`: the half-maximal effective concentration (EC50) is below 0.4 µM.

On to `O=C1Nc2ccccc2C(c2ccccc2)=NC1Nc1nnc(-c2ncc(N3CCOCC3)cc2F)o1` (stereo unspecified), for which the EC50 is below 0.4 µM.

On to `O=C1Nc2ccccc2C(c2ccccc2)=NC1Nc1nnc(C2CC2)o1` (stereo unspecified), for which the half-maximal effective concentration (EC50) is above 0.8 µM.

Turning to `CC(C)(O)c1nnc(NC2N=C(c3ccccc3)c3ccccc3NC2=O)o1` (stereo unspecified), the concentration giving a half-maximal response (EC50) is above 0.8 µM.

`O=C1Nc2ccccc2C(c2ccccc2)=NC1Nc1nnc(C2CC(F)(F)C2)o1` (stereo unspecified): the concentration giving a half-maximal response (EC50) is above 0.8 µM.

Consider `O=C1Nc2ccccc2C(c2ccccc2)=NC1Nc1nnc(-c2cccc3ccccc23)o1` (stereo unspecified), for which the concentration giving a half-maximal response (EC50) was above 0.8 µM.

For the compound `O=C1Nc2ccccc2C(c2ccccc2)=NC1Nc1nnc(-c2ccc(C(F)(F)F)cc2)o1` (stereo unspecified), the EC50 is above 0.8 µM.
